≈ marks a conversion by molar mass, not a printed value. Where two headings read alike, the source gives them in different places. Each block holds one molecule with its values, some of them ahead of it.
Assays:
[1] = Structure-activity remarks on potency of PHY analogues (test not named); settings: relative to PHY-34 type acetal
[2] = Solubility, plate reader-based absorbance assay; assay type: physicochemical
From the text: A series of compounds were synthesized to improve their water solubility. In particular, phyllanthusmin derivatives including an arabinose derivative with a free C2 hydroxy group, have been explored to produce phosphate, succinate, and amino acid conjugates. In addition PHY-25 and PHY-30 have also been synthesized to contain similar alcohol functionality that can ultimately be utilized to improve water solubility. PHY-28 and PHY-29 containing a glucosamine moiety were also synthesized for improved water solubility. The water solubility of these and other PHY derivatives was assessed (Table 2) to establish a baseline of solubility in a series of 4 solutions. This was accomplished using a plate reader-based absorbance assay.
The solubility, maximum tolerated dose, and pharmacokinetics of the phyllanthusmins, facilitating the in vivo studies with PHY-34, were also determined. The solubility of the compounds were assessed in DMSO, PEG300, HPβCD, and PBS. The stability of PHY-34 was assessed in a formulation comprising PEG300 and saline at a 1:1 volume ratio. The solution was prepared at a concentration of 7 mg/ml. A plate reader-based absorbance assay or LC-MS/MS was used. Table 4 summarizes the solubility measurements. FIG. 5 and Table 5 summarize the stability measurements. FIGS. 6A and 6B show the concentration-time profile of PHY-34 in mouse plasma via different administration routes

[3] = system: OVCAR3 ovarian cancer cell line; experiment: IC50 in ovarian cancer cell line OVCAR3; assay type: cell-based
Method: (§1) The compounds shown in FIG. 2 were tested against two different ovarian cancer cell lines (xenograft mouse model OVCAR3 and OVCAR8 ovarian cancer cell lines). […] A summary of the test data is shown in FIGS. 3A, 3B, and 4 and Table 3. A comparison of the IC50 values of the compounds in FIG. 2 in two of the ovarian cancer cell lines (OVCAR3 and OVCAR8) reveal subtle differences in activity.

[4] = system: OVCAR8 ovarian cancer cell line; experiment: IC50 in ovarian cancer cell line OVCAR8; assay type: cell-based
Method: as §1

[5] = system: HT-29 cells; experiment: Cytotoxicity / antiproliferative activity against HT-29 cells; assay type: cell-based; settings: HT-29 cells, antiproliferative activity
From the text: The cytotoxicity of the compounds in FIG. 1 was screened against HT-29 cells by a previously reported procedure (Ren Y et al. J. Nat. Prod 2011, 74, 1117-1125). A summary of the results is described in Table 1.

Molecule: COc1cc2c(OC3OC4COC(C)OC4C(O)C3O)c3c(c(-c4ccc5c(c4)OCO5)c2cc1OC)C(=O)OC3 [PHY-32, 7-O-(4,6-O-ethylidene-β-D-galactopyranosyl)-diphyllin]
- effect of acetal variation on potency (in words) [1]: loss of potency

Molecule: phyllanthusmins B [PHY-3]
- Solubility in 10% Cremaphor EL/PBS [2]: 8.9 mg/mL
- Solubility in DMSO [2]: 16 mg/mL
- Solubility in PBS [2]: 0.18 mg/mL
- Solubility in PEG300 [2]: 30 mg/mL

Molecule: COc1cc2c(O[C@@H]3O[C@H](CO)[C@@H](O)[C@H](O)[C@H]3NC(C)=O)c3c(c(-c4ccc5c(c4)OCO5)c2cc1OC)C(=O)OC3 [PHY-29]
- IC50 [5]: 19000 nM

Molecule: COc1cc([C@@H]2c3cc4c(cc3[C@@H](O[C@@H]3O[C@@H]5CO[C@@H](C)O[C@H]5[C@H](O)[C@H]3O)[C@H]3COC(=O)[C@H]23)OCO4)cc(OC)c1O [ETOPO, etoposide, reference compound]
- IC50 ([3]; OVCAR3): 2380 nM
- IC50 ([4]; OVCAR8): 8130 nM

Molecule: COc1cc2c(O[C@@H]3O[C@H](COC(C)=O)[C@@H](OC(C)=O)[C@H](OC(C)=O)[C@H]3NC(C)=O)c3c(c(-c4ccc5c(c4)OCO5)c2cc1OC)C(=O)OC3 [PHY-28]
- IC50 [5]: 1550 nM

Molecule: COc1cc2c(OCC(O)CO)c3c(c(-c4ccc5c(c4)OCO5)c2cc1OC)C(=O)OC3 (stereo not shown) [PHY-19]
- IC50 [5]: 1560 nM

Molecule: COc1cc2c(OC3OC(CO)C4OC5(CCCCC5)OC4C3O)c3c(c(-c4ccc5c(c4)OCO5)c2cc1OC)C(=O)OC3 (stereo not shown) [PHY-42]
- IC50 ([3]; OVCAR3): 377 nM
- IC50 ([4]; OVCAR8): 1.99 nM
- effect of acetal variation on potency (in words) [1]: well tolerated

More lines, main results first:

- IC50 ([3]; OVCAR3): 12000 nM
- IC50 ([4]; OVCAR8): 151 nM
Molecule: COc1cc2c(OC)c3c(c(-c4ccc5c(c4)OCO5)c2cc1OC)C(=O)OC3 [PHY-26]

- IC50 ([3]; OVCAR3): 4.85 nM
- IC50 ([4]; OVCAR8): 7.04 nM
- Solubility in DMSO [2]: 86.8 mg/mL (≈ 142 mM)
- Solubility in PEG300 [2]: 25.4 mg/mL (≈ 41.6 mM)
Molecule: COCC1OC(Oc2c3c(c(-c4ccc5c(c4)OCO5)c4cc(OC)c(OC)cc24)C(=O)OC3)C(OC)C2OC(C)(C)OC12 (stereo not shown) [PHY-35]

- IC50 ([3]; OVCAR3): 3.59 nM
- IC50 ([4]; OVCAR8): 4.87 nM
- Solubility in 30% HPβCD ([2]; Table 4): 0.6 mg/mL (≈ 1.01 mM)
- Solubility in DMSO ([2]; Table 4): 104.0 mg/mL (≈ 174 mM)
- Solubility in PEG300 ([2]; Table 4): 28.7 mg/mL (≈ 48.1 mM)
Molecule: COc1cc2c(OC3OC(CO)C4OC(C)(C)OC4C3OC)c3c(c(-c4ccc5c(c4)OCO5)c2cc1OC)C(=O)OC3 (stereo not shown) [PHY-37]
- Solubility in PBS ([2]; Table 4): — (below the limit of quantitation (0.01 mg/ml))

- IC50 ([3]; Homo sapiens, OVCAR-3): 5.91 nM
- IC50 ([4]; Homo sapiens, OVCAR-8): 7.76 nM
Molecule: CC(=O)O[C@H]1C(=O)[C@@]2(C)[C@H]([C@H](OC(=O)c3ccccc3)[C@]3(O)C[C@H](OC(=O)[C@H](O)[C@@H](NC(=O)c4ccccc4)c4ccccc4)C(C)=C1C3(C)C)[C@]1(OC(C)=O)CO[C@@H]1C[C@@H]2O [TAXOL, Taxol, reference compound]

- Solubility in 10% Cremaphor EL/PBS [2]: 9.4 mg/mL
- Solubility in DMSO [2]: 63 mg/mL
- Solubility in PBS [2]: 0.17 mg/mL
- Solubility in PEG300 [2]: 32 mg/mL
Molecule: phyllanthusmins C [PHY-4]

- IC50 ([3]; OVCAR3): 11.5 nM
- IC50 ([4]; OVCAR8): 11.7 nM
Molecule: COc1cc2c(OC3OCC4OC(C)(C)OC4C3O)c3c(c(-c4ccc5c(c4)OCO5)c2cc1OC)C(=O)OC3 (stereo not shown) [PHY-30]
- IC50 [5]: 10.8 nM

Source: patent publication US10682367B2, “Antitumor arylnaphthalene ligand glycosides” (OHIO STATE INNOVATION FOUNDATION, priority 2016, dated 2020)
